Laboratory results published in patent publication US10004701B2, “Methods and compositions for treating infection” (UNIVERSITY OF ROCHESTER, priority 2012, dated 2018).
Counter-ions that a name gives are not always drawn. Like-named read-outs stand apart in the source and are kept apart here.

Tests used:
Experiment in all cases: AK assay 384-well format, Prestwick library screening
E. faecium = format: cell-based, Enterococcus faecium; details: for fold induction at 50 µM: Enterococcus faecium, 3 h
[1] = system: S. aureus strain USA300-0114; format: cell-based, Staphylococcus aureus; details: for fold induction at 50 µM: Staphylococcus aureus, USA300, 3 h
K. pneumoniae = format: cell-based, Klebsiella pneumoniae; details: for fold induction at 50 µM: Klebsiella pneumoniae, 3 h
[2] = system: A. baumannii strain 98-37-09; format: cell-based, Acinetobacter baumannii; details: for fold induction at 50 µM: Acinetobacter baumannii, 983709, 3 h
P. aeruginosa = format: cell-based, Pseudomonas aeruginosa; details: for fold induction at 50 µM: Pseudomonas aeruginosa, 3 h
E. cloacae = format: cell-based, Enterobacter cloacae; details: for fold induction at 50 µM: Enterobacter cloacae, 3 h
E. coli = format: cell-based, Escherichia coli; details: for fold induction at 50 µM: Escherichia coli, 3 h
[3] = 50 μM final drug concentration, planktonic, cutoff for positive-scoring molecules 3-fold increase, read-out: AK-based Prestwick Library Screening Results, E. faecium (fold increase in extracellular AK activity)
[4] = 50 μM final drug concentration, planktonic, cutoff for positive-scoring molecules 3-fold increase, read-out: AK-based Prestwick Library Screening Results, S. aureus (fold increase in extracellular AK activity)
[5] = 50 μM final drug concentration, planktonic, cutoff for positive-scoring molecules 3-fold increase, read-out: AK-based Prestwick Library Screening Results, K. pneumoniae (fold increase in extracellular AK activity)
[6] = 50 μM final drug concentration, planktonic, cutoff for positive-scoring molecules 3-fold increase, read-out: AK-based Prestwick Library Screening Results, A. baumannii (fold increase in extracellular AK activity)
[7] = 50 μM final drug concentration, planktonic, cutoff for positive-scoring molecules 3-fold increase, read-out: AK-based Prestwick Library Screening Results, P. aeruginosa (fold increase in extracellular AK activity)
[8] = 50 μM final drug concentration, planktonic, cutoff for positive-scoring molecules 3-fold increase, read-out: AK-based Prestwick Library Screening Results, E. cloacae (fold increase in extracellular AK activity)
[9] = 50 μM final drug concentration, planktonic, cutoff for positive-scoring molecules 3-fold increase, read-out: AK-based Prestwick Library Screening Results, E. coli (fold increase in extracellular AK activity)
[10] = planktonic E. faecium, 50 μM final drug concentration, 384-well, cutoff for positive-scoring molecules 3-fold increase, read-out: AK-based Prestwick Library Screening Results: E. faecium (increase in extracellular AK activity)
[11] = planktonic S. aureus, 50 μM final drug concentration, 384-well, cutoff for positive-scoring molecules 3-fold increase, read-out: AK-based Prestwick Library Screening Results: S. aureus (increase in extracellular AK activity)
[12] = planktonic K. pneumoniae, 50 μM final drug concentration, 384-well, cutoff for positive-scoring molecules 3-fold increase, read-out: AK-based Prestwick Library Screening Results: K. pneumoniae (increase in extracellular AK activity)
[13] = planktonic A. baumannii, 50 μM final drug concentration, 384-well, cutoff for positive-scoring molecules 3-fold increase, read-out: AK-based Prestwick Library Screening Results: A. baumannii (increase in extracellular AK activity)
[14] = planktonic P. aeruginosa, 50 μM final drug concentration, 384-well, cutoff for positive-scoring molecules 3-fold increase, read-out: AK-based Prestwick Library Screening Results: P. aeruginosa (increase in extracellular AK activity)
[15] = planktonic E. cloacae, 50 μM final drug concentration, 384-well, cutoff for positive-scoring molecules 3-fold increase, read-out: AK-based Prestwick Library Screening Results: E. cloacae (increase in extracellular AK activity)
[16] = planktonic E. coli, 50 μM final drug concentration, 384-well, cutoff for positive-scoring molecules 3-fold increase, read-out: AK-based Prestwick Library Screening Results: E. coli (increase in extracellular AK activity)

| Compound | fold induction at 50 µM (E. faecium; [3]) | fold induction at 50 µM [1, 4] | fold induction at 50 µM (K. pneumoniae; [5]) | fold induction at 50 µM [2, 6] | fold induction at 50 µM (P. aeruginosa; [7]) | fold induction at 50 µM (E. cloacae; [8]) | fold induction at 50 µM (E. coli; [9]) | fold induction at 50 µM (E. faecium; [10]) | fold induction at 50 µM [1, 11] | fold induction at 50 µM (K. pneumoniae; [12]) | fold induction at 50 µM [2, 13] | fold induction at 50 µM (P. aeruginosa; [14]) | fold induction at 50 µM (E. cloacae; [15]) | fold induction at 50 µM (E. coli; [16]) | also measured |
| --- | --- | --- | --- | --- | --- | --- | --- | --- | --- | --- | --- | --- | --- | --- | --- |
| C[N+]1(C)CCCC(OC(=O)C(O)(c2ccccc2)c2ccccc2)C1 (stereo not drawn) [Mepenzolate bromide] | 1 | 0.6 | 0.6 | 0.7 | 0.6 | 0.7 | 0.6 |  |  |  |  |  |  |  |  |
| CC(C(=O)O)c1cccc(Oc2ccccc2)c1 (stereo not drawn) [Fenoprofen calcium salt dihydrate] | 0.9 | 0.8 | 0.7 | 0.8 | 0.8 | 1.4 | 0.8 |  |  |  |  |  |  |  |  |
| COC(=O)Nc1nc2ccc(C(=O)c3ccccc3)cc2[nH]1 [Mebendazole] |  |  |  |  |  |  |  | 0.9 | 0.9 | 0.8 | 0.7 | 0.8 | 1.2 | 0.8 |  |
| CN(C)[C@@H]1C(O)=C(C(N)=O)C(=O)[C@@]2(O)C(O)=C3C(=O)c4c(O)cccc4[C@@](C)(O)[C@H]3C[C@@H]12 [Tetracycline hydrochloride] |  |  |  |  |  |  |  | 1 | 9.2 | 0.2 | 4.4 | 0.5 | 1 | 0.8 |  |
| C[C@](N)(Cc1ccc(O)c(O)c1)C(=O)O [Methyldopa (L,−)] |  |  |  |  |  |  |  |  |  |  |  |  |  |  | AK-based Prestwick Library Screening Results: E. faecium (increase in extracellular AK activity) (E. faecium; planktonic E. faecium, 50 μM final drug concentration, 384-well, cutoff for positive-scoring molecules 3-fold increase): 0.9; AK-based Prestwick Library Screening Results: S. aureus (increase in extracellular AK activity) ([1]; planktonic S. aureus, 50 μM final drug concentration, 384-well, cutoff for positive-scoring molecules 3-fold increase): 0.4; AK-based Prestwick Library Screening Results: K. pneumoniae (increase in extracellular AK activity) (K. pneumoniae; planktonic K. pneumoniae, 50 μM final drug concentration, 384-well, cutoff for positive-scoring molecules 3-fold increase): 0.6; AK-based Prestwick Library Screening Results: A. baumannii (increase in extracellular AK activity) ([2]; planktonic A. baumannii, 50 μM final drug concentration, 384-well, cutoff for positive-scoring molecules 3-fold increase): 0.5; AK-based Prestwick Library Screening Results: P. aeruginosa (increase in extracellular AK activity) (P. aeruginosa; planktonic P. aeruginosa, 50 μM final drug concentration, 384-well, cutoff for positive-scoring molecules 3-fold increase): 0.4; AK-based Prestwick Library Screening Results: E. cloacae (increase in extracellular AK activity) (E. cloacae; planktonic E. cloacae, 50 μM final drug concentration, 384-well, cutoff for positive-scoring molecules 3-fold increase): 0.5; AK-based Prestwick Library Screening Results: E. coli (increase in extracellular AK activity) (E. coli; planktonic E. coli, 50 μM final drug concentration, 384-well, cutoff for positive-scoring molecules 3-fold increase): 0.6 |
| Cc1nnc(NS(=O)(=O)c2ccc(N)cc2)s1 [Sulfamethizole] | 0.9 | 0.7 | 0.7 | 1.4 | 0.8 | 0.9 | 1 |  |  |  |  |  |  |  |  |
| CCN(CC)CCCC(C)Nc1c2ccc(Cl)cc2nc2ccc(OC)cc12 (stereo not drawn) [Quinacrine dihydrochloride dihydrate] |  |  |  |  |  |  |  | 1 | 1.2 | 1 | 1.3 | 0.9 | 1.4 | 1.2 |  |
| COc1cc(C)nc(-n2nc(C)cc2OC)n1 [Epirizole] |  |  |  |  |  |  |  |  |  |  |  |  |  |  | fold induction at 50 µM (E. faecium; 50 μM final drug concentration, 384-well format, cutoff for positive-scoring molecules 3-fold increase, read-out: AK-based Prestwick Library Screening Results, E. faecium (increase in extracellular AK activity)): 0.8; fold induction at 50 µM ([1]; 50 μM final drug concentration, 384-well format, cutoff for positive-scoring molecules 3-fold increase, read-out: AK-based Prestwick Library Screening Results, S. aureus (increase in extracellular AK activity)): 2.2; fold induction at 50 µM (K. pneumoniae; 50 μM final drug concentration, 384-well format, cutoff for positive-scoring molecules 3-fold increase, read-out: AK-based Prestwick Library Screening Results, K. pneumoniae (increase in extracellular AK activity)): 0.7; fold induction at 50 µM ([2]; 50 μM final drug concentration, 384-well format, cutoff for positive-scoring molecules 3-fold increase, read-out: AK-based Prestwick Library Screening Results, A. baumannii (increase in extracellular AK activity)): 0.9; fold induction at 50 µM (P. aeruginosa; 50 μM final drug concentration, 384-well format, cutoff for positive-scoring molecules 3-fold increase, read-out: AK-based Prestwick Library Screening Results, P. aeruginosa (increase in extracellular AK activity)): 0.8; fold induction at 50 µM (E. cloacae; 50 μM final drug concentration, 384-well format, cutoff for positive-scoring molecules 3-fold increase, read-out: AK-based Prestwick Library Screening Results, E. cloacae (increase in extracellular AK activity)): 1.2; fold induction at 50 µM (E. coli; 50 μM final drug concentration, 384-well format, cutoff for positive-scoring molecules 3-fold increase, read-out: AK-based Prestwick Library Screening Results, E. coli (increase in extracellular AK activity)): 1 |
| C[C@]12CC[C@H](O)C[C@@H]1CC[C@@H]1[C@@H]2CC[C@]2(C)C(=O)CC[C@@H]12 [Epiandrosterone] |  |  |  |  |  |  |  |  |  |  |  |  |  |  | fold induction at 50 µM (E. faecium; read-out: AK-based Prestwick Library Screening Results, E. faecium (increase in extracellular AK activity)): 1; fold induction at 50 µM ([1]; read-out: AK-based Prestwick Library Screening Results, S. aureus (increase in extracellular AK activity)): 0.6; fold induction at 50 µM (K. pneumoniae; read-out: AK-based Prestwick Library Screening Results, K. pneumoniae (increase in extracellular AK activity)): 0.7; fold induction at 50 µM ([2]; read-out: AK-based Prestwick Library Screening Results, A. baumannii (increase in extracellular AK activity)): 0.8; fold induction at 50 µM (P. aeruginosa; read-out: AK-based Prestwick Library Screening Results, P. aeruginosa (increase in extracellular AK activity)): 0.8; fold induction at 50 µM (E. cloacae; read-out: AK-based Prestwick Library Screening Results, E. cloacae (increase in extracellular AK activity)): 1.1; fold induction at 50 µM (E. coli; read-out: AK-based Prestwick Library Screening Results, E. coli (increase in extracellular AK activity)): 0.9 |
